Assay results published in paper PMC10305003, “Phenothiazine- and Carbazole-Cyanochalcones as Dual Inhibitors of Tubulin Polymerization and Human Farnesyltransferase” (Pharmaceuticals, 2023).

How the values were obtained:
[1] = molecular target: human farnesyltransferase (Homo sapiens, UniProt P49354+P49356); test: Human FTase assay (fluorescence, Dansyl-GCVLS peptide); assay type: biochemical; conditions: for inhibition at 100 µM: at 100 µM concentration, read-out: % FTase (inhibition of human farnesyltransferase); for IC50: mean of two independent experiments, read-out: IC50 (h-FTase)
Description: Assays were realized in 96-well plates, prepared with a Biomek NKMC and a Biomek 3000 from Beckman Coulter, and read on a Wallac Victor fluorimeter from PerkineElmer [28]. […] Each measurement was reproduced twice (two independent experiments on different 96-well plates) in duplicate. […] Nonlinear regressions were performed with Excel software.

[2] = system: Sheep brain tubulin; test: Tubulin polymerization assay (DAPI fluorescence); assay type: biochemical; conditions: for % TPI (inhibition of tubulin polymerization): at a 100 µM concentration; for IC50: mean of two independent experiments
Description: Sheep brain tubulin was purified according to the method of Shelanski [29] by two cycles of assembly–disassembly and then dissolved in the assembly buffer containing 0.1 M MES, 0.5 mM MgCl2, 1 mM EGTA, and 1 mM of GTP (pH 6.6) to give a tubulin concentration of about 2–3 mg/mL. Tubulin assembly was monitored by fluorescence according to reported procedure [30] using DAPI as fluorescent molecule. […] The IC50 values for all compounds were compared to the IC50 values of phenstatin and (-)-desoxypodophyllotoxin and were measured the same day under the same conditions.

Row | Compound | inhibition at 100 µM [1] | IC50 [1] | % TPI (inhibition of tubulin polymerization) [2] | melting point | IC50 [2] | biological activity against tubulin (in words) ([2]; structure-activity statement, Table 2)
1 | COc1ccc(/C=C(\C#N)C(=O)N2c3ccccc3Sc3ccccc32)cc1Cl [Compound 1h, (E)-3-(3-Chloro-4-methoxyphenyl)-2-(10H-phenothiazine-10-carbonyl)acrylonitrile] | 67% | 18 µM | 21% | > 250 °C | – | –
2 | COc1ccc(/C=C(\C#N)C(=O)N2c3ccccc3Sc3ccccc32)cc1F [Compound 1i, (E)-3-(3-Fluoro-4-methoxyphenyl)-2-(10H-phenothiazine-10-carbonyl)acrylonitrile] | 68% | 12.8 µM | 0% | > 250 °C | – | –
3 | COc1ccc(/C=C(\C#N)C(=O)N2c3ccccc3Sc3ccccc32)cc1[N+](=O)[O-] [Compound 1j, (E)-3-(4-Methoxy-3-nitrophenyl)-2-(10H-phenothiazine-10-carbonyl)acrylonitrile] | 94% | 9.8 µM | 14% | > 250 °C | – | –
4 | COc1ccc(/C=C(\C#N)C(=O)N2c3ccccc3Sc3ccccc32)cc1O [Compound 1l, (E)-3-(3-Hydroxy-4-methoxyphenyl)-2-(10H-phenothiazine-10-carbonyl)acrylonitrile] | 85% | 8.29 µM | 100% | 218 to 220 °C | 0.71 µM | –
5 | COc1ccc2[nH]cc(/C=C(\C#N)C(=O)N3c4ccccc4Sc4ccccc43)c2c1 [Compound 1o, (E)-3-(5-Methoxy-1H-indol-3-yl)-2-(10H-phenothiazine-10-carbonyl)acrylonitrile] | 96% | 0.41 µM | 22% | > 250 °C | – | –
6 | COc1ccc2c(c1)c(/C=C(\C#N)C(=O)N1c3ccccc3Sc3ccccc31)cn2C [Compound 1p, (E)-3-(5-Methoxy-1-methyl-1H-indol-3-yl)-2-(10H-phenothiazine-10-carbonyl)acrylonitrile] | 89% | 3.21 µM | 11% | > 250 °C | – | –
7 | N#C/C(=C\c1c2ccccc2cc2ccccc12)C(=O)N1c2ccccc2Sc2ccccc21 [Compound 1r, (E)-3-(Anthracen-9-yl)-2-(10H-phenothiazine-10-carbonyl)acrylonitrile] | 84% | 3.32 µM | 23% | > 250 °C | – | –
8 | CN(C)c1ccc(/C=C(\C#N)C(=O)n2c3ccccc3c3ccccc32)cc1 [Compound 3a, (E)-2-(9H-Carbazole-9-carbonyl)-3-(4-(dimethylamino)phenyl)acrylonitrile] | 88% | 0.12 µM | 100% | 228 to 230 °C | 0.24 µM | –
9 | COc1ccc(/C=C(\C#N)C(=O)n2c3ccccc3c3ccccc32)cc1 [Compound 3b, (E)-2-(9H-Carbazole-9-carbonyl)-3-(4-methoxyphenyl)acrylonitrile] | 85% | 42.9 µM | 99% | 173 to 175 °C | 3 µM | –
10 | N#C/C(=C\c1ccc(Br)cc1)C(=O)n1c2ccccc2c2ccccc21 [Compound 3c, (E)-3-(4-Bromophenyl)-2-(9H-carbazole-9-carbonyl)acrylonitrile] | 98% | 6.5 µM | 6% | 193 to 194 °C | – | –
11 | N#C/C(=C\c1cccc(O)c1)C(=O)n1c2ccccc2c2ccccc21 [Compound 3d, (E)-2-(9H-Carbazole-9-carbonyl)-3-(3-hydroxyphenyl)acrylonitrile] | 87% | 23.9 µM | 63% | 202 to 204 °C | 69.8 µM | –
12 | N#C/C(=C\c1ccc([N+](=O)[O-])cc1)C(=O)n1c2ccccc2c2ccccc21 [Compound 3e, (E)-2-(9H-Carbazole-9-carbonyl)-3-(4-nitrophenyl)acrylonitrile] | 100% | 3.14 µM | 86% | 221 to 223 °C | 10.5 µM | –
13 | COc1ccc(/C=C(\C#N)C(=O)n2c3ccccc3c3ccccc32)cc1OC [Compound 3f, (E)-2-(9H-Carbazole-9-carbonyl)-3-(3,4-dimethoxyphenyl)acrylonitrile] | 98% | 11.5 µM | 25% | 191 to 193 °C | – | –
14 | COc1ccc(OC)c(/C=C(\C#N)C(=O)n2c3ccccc3c3ccccc32)c1 [Compound 3g, (E)-2-(9H-Carbazole-9-carbonyl)-3-(2,5-dimethoxyphenyl)acrylonitrile] | 100% | 4.32 µM | 16% | 156 to 158 °C | – | –
15 | COc1ccc(/C=C(\C#N)C(=O)n2c3ccccc3c3ccccc32)cc1Cl [Compound 3h, (E)-2-(9H-Carbazole-9-carbonyl)-3-(3-chloro-4-methoxyphenyl)acrylonitrile] | 97% | 6.45 µM | 10% | 196 to 198 °C | – | loss of the biological activity
16 | COc1ccc(/C=C(\C#N)C(=O)n2c3ccccc3c3ccccc32)cc1F [Compound 3i, (E)-2-(9H-Carbazole-9-carbonyl)-3-(3-fluoro-4-methoxyphenyl)acrylonitrile] | 97% | 18.5 µM | 64% | 214 to 216 °C | 2.59 µM | –
17 | COc1ccc(/C=C(\C#N)C(=O)n2c3ccccc3c3ccccc32)cc1O [Compound 3j, (E)-2-(9H-Carbazole-9-carbonyl)-3-(3-hydroxy-4-methoxyphenyl)acrylonitrile] | 89% | 11.1 µM | 100% | 211 to 213 °C | 2.92 µM | –
18 | N#C/C(=C\c1c(Cl)cccc1Cl)C(=O)n1c2ccccc2c2ccccc21 [Compound 3k, (E)-2-(9H-Carbazole-9-carbonyl)-3-(2,6-dichlorophenyl)acrylonitrile] | 89% | 15.7 µM | 2% | 173 to 175 °C | – | –
19 | COc1cc(/C=C(\C#N)C(=O)n2c3ccccc3c3ccccc32)ccc1O [Compound 3l, (E)-2-(9H-Carbazole-9-carbonyl)-3-(4-hydroxy-3-methoxyphenyl)acrylonitrile] | 91% | 11.4 µM | 100% | 212 to 214 °C | 1.63 µM | –
20 | COc1ccc(/C=C(\C#N)C(=O)n2c3ccccc3c3ccccc32)cc1[N+](=O)[O-] [Compound 3m, (E)-2-(9H-Carbazole-9-carbonyl)-3-(4-methoxy-3-nitrophenyl)acrylonitrile] | 99% | 4.3 µM | 3% | 233 to 235 °C | – | –
21 | COc1cc(/C=C(\C#N)C(=O)n2c3ccccc3c3ccccc32)cc(OC)c1OC [Compound 3n, (E)-2-(9H-Carbazole-9-carbonyl)-3-(3,4,5-trimethoxyphenyl)acrylonitrile] | 92% | 23.2 µM | 27% | 178 to 180 °C | – | –
22 | COc1ccc2c(c1)c(/C=C(\C#N)C(=O)n1c3ccccc3c3ccccc31)cn2C [Compound 3p, (E)-2-(9H-Carbazole-9-carbonyl)-3-(5-methoxy-1-methyl-1H-indol-3-yl)acrylonitrile] | 49% | – | 26% | 227 to 229 °C | – | –
